The text below walks through data of the supplement of paper PMC8967900.
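Also: ALL cell lines in 384-well plates, five doses spanning 10,000-fold, each plate scaled between vehicle and 100 µmol/L benzalkonium chloride controls, sDSS an adapted area-under-curve metric.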

One experiment concerns KASUMI-9. The experiment can be described thus: selective drug sensitivity score (sDSS, relative to normal bone marrow) (sDSS (score)); higher = more potent and effective on the cell line relative to normal bone marrow cells. The note with it: 72 h.
With `C[C@H]1C[C@@H]2[C@H]([C@@H](O)C[C@@]3(C)[C@H]2CC[C@]3(O)C(=O)CO)[C@@]2(C)C=CC(=O)C=C12` [Methylprednisolone] (top concentration 10000 nM), the “selective drug sensitivity score” value amounted to 4.

Turning to `FC(F)(F)c1ccc(/C=C/c2nc(COc3ccc(CCCCn4ccnn4)cc3)co2)cc1` [Mubritinib] (top concentration 1000 nM), the “selective drug sensitivity score” value worked out at 3.56.

With `COc1cc2c(cc1OC(C)C)[C@H](c1ccc(Cl)cc1)N(c1ccc(N(C)C[C@H]3CC[C@H](N4CCN(C)C(=O)C4)CC3)cc1)C(=O)C2` [NVP-CGM097] (top concentration 25000 nM), the “selective drug sensitivity score” value is 14.5.

`CCOc1cc2ncc(C#N)c(Nc3ccc(OCc4ccccn4)c(Cl)c3)c2cc1NC(=O)/C=C/CN(C)C` [Neratinib] (top concentration 1000 nM): the “selective drug sensitivity score” value was determined as 3.68.

As for `COc1ncc(-c2ccc3nccc(-c4ccnnc4)c3c2)cc1NS(=O)(=O)c1ccc(F)cc1F` [Omipalisib] (top concentration 1000 nM), the “selective drug sensitivity score” value was found to be 12.6.

For the molecule `CN1CCN(c2cc(C(=O)Nc3ccc4c(c3)-c3c(c(C(N)=O)nn3-c3ccc(F)cc3)CC4)c(Cl)cn2)CC1` [PHA-408] (top concentration 10000 nM), the “selective drug sensitivity score” value was determined as 2.48.

As to `OC[C@H]1O[C@@H](n2cnc3c2N=CNC[C@H]3O)C[C@@H]1O` [Pentostatin] (top concentration 10000 nM), the “selective drug sensitivity score” value is -0.44.

Turning to `CC(C)N(C[C@H]1O[C@@H](n2cnc3c(N)ncnc32)[C@H](O)[C@@H]1O)[C@H]1C[C@@H](CCc2nc3cc(C(C)(C)C)ccc3[nH]2)C1` [Pinometostat] (top concentration 1000 nM), the “selective drug sensitivity score” value amounted to 0.

`Cc1ccc(=O)n(-c2ccccc2)c1` [Pirfenidone] (top concentration 10000 nM): the “selective drug sensitivity score” value was 0.

Another experiment concerns KASUMI-2. Described as above. As to conditions: 72 h.
With `CC(=O)[C@]1(O)Cc2c(O)c3c(c(O)c2[C@@H](O[C@H]2C[C@H](N)[C@H](O)[C@H](C)O2)C1)C(=O)c1ccccc1C3=O` [Idarubicin] (top concentration 1000 nM), the “selective drug sensitivity score” value came out at 11.5.

In the case of `COc1cc2nccc(Oc3ccc(NC(=O)NC4CC4)c(Cl)c3)c2cc1C(N)=O` [Lenvatinib] (top concentration 2500 nM), the “selective drug sensitivity score” value was -0.14.

For `N#Cc1ccc(C(c2ccc(C#N)cc2)n2cncn2)cc1` [Letrozole] (top concentration 10000 nM), the “selective drug sensitivity score” value is 0.76.

For `CCNCCS(=O)(=O)NC[C@@]1(c2ccccc2)SC(NC(=O)C(C)(C)C)=NN1C(=O)C(C)(C)C` [Litronesib] (top concentration 1000 nM), the “selective drug sensitivity score” value came to 18.9.

`CC[C@H](C)C(=O)O[C@H]1C[C@@H](C)C=C2C=C[C@H](C)[C@H](CC[C@@H]3C[C@@H](O)CC(=O)O3)[C@H]21` [Lovastatin] (top concentration 10000 nM): the “selective drug sensitivity score” value was -0.1.

For the molecule `Cn1cc(-c2cnn3c(N)c(Br)c([C@@H]4CCCNC4)nc23)cn1` [MK-8776] (top concentration 2500 nM), the “selective drug sensitivity score” value is -1.46.

`Cc1cnc(-c2ccccc2C(C)C)nc1NCc1ccc(-n2ccnn2)cc1` [ML323] (top concentration 10000 nM): the “selective drug sensitivity score” value was 0.14.

Consider `O=C(CCNC(=O)c1ccc(OC(F)(F)F)cc1)N[C@@H]1CCCc2ccccc21` [ML390] (top concentration 50000 nM), for which the “selective drug sensitivity score” value is 2.9.

As for `CN(C)C(=N)NC(=N)N` [Metformin] (top concentration 100000 nM), the “selective drug sensitivity score” value is -0.02.

On to `C[C@H]1C[C@@H]2[C@H]([C@@H](O)C[C@@]3(C)[C@H]2CC[C@]3(O)C(=O)CO)[C@@]2(C)C=CC(=O)C=C12` [Methylprednisolone] (top concentration 10000 nM), for which the “selective drug sensitivity score” value stood at 11.6.

With `FC(F)(F)c1ccc(/C=C/c2nc(COc3ccc(CCCCn4ccnn4)cc3)co2)cc1` [Mubritinib] (top concentration 1000 nM), the “selective drug sensitivity score” value was found to be 11.6.

Take `COc1cc2c(cc1OC(C)C)[C@H](c1ccc(Cl)cc1)N(c1ccc(N(C)C[C@H]3CC[C@H](N4CCN(C)C(=O)C4)CC3)cc1)C(=O)C2` [NVP-CGM097] (top concentration 25000 nM): the “selective drug sensitivity score” value came to 8.16.

For `CCOc1cc2ncc(C#N)c(Nc3ccc(OCc4ccccn4)c(Cl)c3)c2cc1NC(=O)/C=C/CN(C)C` [Neratinib] (top concentration 1000 nM), the “selective drug sensitivity score” value was -0.72.

Consider `COc1ncc(-c2ccc3nccc(-c4ccnnc4)c3c2)cc1NS(=O)(=O)c1ccc(F)cc1F` [Omipalisib] (top concentration 1000 nM), for which the “selective drug sensitivity score” value stood at 12.9.

For `CN1CCN(c2cc(C(=O)Nc3ccc4c(c3)-c3c(c(C(N)=O)nn3-c3ccc(F)cc3)CC4)c(Cl)cn2)CC1` [PHA-408] (top concentration 10000 nM), the “selective drug sensitivity score” value came out at 4.48.

Turning to `OC[C@H]1O[C@@H](n2cnc3c2N=CNC[C@H]3O)C[C@@H]1O` [Pentostatin] (top concentration 10000 nM), the “selective drug sensitivity score” value is -0.44.

Regarding `CC(C)N(C[C@H]1O[C@@H](n2cnc3c(N)ncnc32)[C@H](O)[C@@H]1O)[C@H]1C[C@@H](CCc2nc3cc(C(C)(C)C)ccc3[nH]2)C1` [Pinometostat] (top concentration 1000 nM), the “selective drug sensitivity score” value came to 0.

For the molecule `Cc1ccc(=O)n(-c2ccccc2)c1` [Pirfenidone] (top concentration 10000 nM), the “selective drug sensitivity score” value came to 0.

In a further experiment the test system is PEER. The description is as above. As to conditions: 72 h.
As to `CC(=O)[C@]1(O)Cc2c(O)c3c(c(O)c2[C@@H](O[C@H]2C[C@H](N)[C@H](O)[C@H](C)O2)C1)C(=O)c1ccccc1C3=O` [Idarubicin] (top concentration 1000 nM), the “selective drug sensitivity score” value is -4.86.

For `COc1cc2nccc(Oc3ccc(NC(=O)NC4CC4)c(Cl)c3)c2cc1C(N)=O` [Lenvatinib] (top concentration 2500 nM), the “selective drug sensitivity score” value is 2.26.

As for `N#Cc1ccc(C(c2ccc(C#N)cc2)n2cncn2)cc1` [Letrozole] (top concentration 10000 nM), the “selective drug sensitivity score” value is -0.04.

On to `CCNCCS(=O)(=O)NC[C@@]1(c2ccccc2)SC(NC(=O)C(C)(C)C)=NN1C(=O)C(C)(C)C` [Litronesib] (top concentration 1000 nM), for which the “selective drug sensitivity score” value came to 21.4.

Consider `CC[C@H](C)C(=O)O[C@H]1C[C@@H](C)C=C2C=C[C@H](C)[C@H](CC[C@@H]3C[C@@H](O)CC(=O)O3)[C@H]21` [Lovastatin] (top concentration 10000 nM), for which the “selective drug sensitivity score” value came out at 1.2.

Consider `Cn1cc(-c2cnn3c(N)c(Br)c([C@@H]4CCCNC4)nc23)cn1` [MK-8776] (top concentration 2500 nM), for which the “selective drug sensitivity score” value is -0.26.

Turning to `Cc1cnc(-c2ccccc2C(C)C)nc1NCc1ccc(-n2ccnn2)cc1` [ML323] (top concentration 10000 nM), the “selective drug sensitivity score” value was 4.24.

On to `O=C(CCNC(=O)c1ccc(OC(F)(F)F)cc1)N[C@@H]1CCCc2ccccc21` [ML390] (top concentration 50000 nM), for which the “selective drug sensitivity score” value was found to be 5.5.

On to `CN(C)C(=N)NC(=N)N` [Metformin] (top concentration 100000 nM), for which the “selective drug sensitivity score” value is -0.02.

As for `C[C@H]1C[C@@H]2[C@H]([C@@H](O)C[C@@]3(C)[C@H]2CC[C@]3(O)C(=O)CO)[C@@]2(C)C=CC(=O)C=C12` [Methylprednisolone] (top concentration 10000 nM), the “selective drug sensitivity score” value was -1.5.

Take `FC(F)(F)c1ccc(/C=C/c2nc(COc3ccc(CCCCn4ccnn4)cc3)co2)cc1` [Mubritinib] (top concentration 1000 nM): the “selective drug sensitivity score” value was 21.7.

On to `COc1cc2c(cc1OC(C)C)[C@H](c1ccc(Cl)cc1)N(c1ccc(N(C)C[C@H]3CC[C@H](N4CCN(C)C(=O)C4)CC3)cc1)C(=O)C2` [NVP-CGM097] (top concentration 25000 nM), for which the “selective drug sensitivity score” value was -2.14.

As for `CCOc1cc2ncc(C#N)c(Nc3ccc(OCc4ccccn4)c(Cl)c3)c2cc1NC(=O)/C=C/CN(C)C` [Neratinib] (top concentration 1000 nM), the “selective drug sensitivity score” value was 2.88.

With `COc1ncc(-c2ccc3nccc(-c4ccnnc4)c3c2)cc1NS(=O)(=O)c1ccc(F)cc1F` [Omipalisib] (top concentration 1000 nM), the “selective drug sensitivity score” value is -3.

For the molecule `CN1CCN(c2cc(C(=O)Nc3ccc4c(c3)-c3c(c(C(N)=O)nn3-c3ccc(F)cc3)CC4)c(Cl)cn2)CC1` [PHA-408] (top concentration 10000 nM), the “selective drug sensitivity score” value stood at 3.18.

For `OC[C@H]1O[C@@H](n2cnc3c2N=CNC[C@H]3O)C[C@@H]1O` [Pentostatin] (top concentration 10000 nM), the “selective drug sensitivity score” value is -0.44.

Regarding `CC(C)N(C[C@H]1O[C@@H](n2cnc3c(N)ncnc32)[C@H](O)[C@@H]1O)[C@H]1C[C@@H](CCc2nc3cc(C(C)(C)C)ccc3[nH]2)C1` [Pinometostat] (top concentration 1000 nM), the “selective drug sensitivity score” value came out at 0.

In the case of `Cc1ccc(=O)n(-c2ccccc2)c1` [Pirfenidone] (top concentration 10000 nM), the “selective drug sensitivity score” value came out at 0.
